Reference: patent publication US12331037B2, “Pyrimidines as EGFR-inhibitors and methods of treating disorders” (Dana-Farber Cancer Institute, Inc., priority 2014, dated 2025)
Where two headings read alike, the source gives them in different places.

How the values were obtained:
[1] = test system: Ba/F3 EGFR DEL/T790M/L718Q; assay: Ba/F3 cell proliferation (MTS) assay; type: cell-based, murine; details: Mus musculus
Procedure: (§1) Murine Ba/F3 cells are engineered to express mutant EGFR protein along with untransformed Ba/F3 cells and are used to performed single drug screens. Cell viability is assessed after 72 hours of compound i.e., compounds of Formula (I), exposure using the colorimetric cell proliferation MTS assay kit (Promega).
(§2) All cell lines were maintained in RPMI 1640 (Invitrogen, Carlsbad, CA) supplemented with 10% FBS 100 units/mL penicillin, 100 units/mL streptomycin, and 2 mM glutamine.
(§3) Ba/F3, NIH-3T3, cells were infected with retrovirus and PC9GR4 and HCC827 EPR cells infected with lentivirus according to standard protocols, as described previously (Engelman, J. A., et al., Proc Natl Acad Sci USA. 2005; 102:3788-93). Stable clones were obtained by selection in puromycin (2 μg/ml).
(§4) Growth and inhibition of growth was assessed by MTS assay and was performed according to previously established methods (Zhou, W., et al., Nature. 462, 2009, 1070-4; Ercan, D., et al., Cancer Discov. 934, 2012, 934-47). […] All experimental points were set up in six wells and all experiments were repeated at least three times. […] The curves were fitted using a non-linear regression model with a sigmoidal dose response.

[2] = test system: Ba/F3 EGFR L858R/L718Q; assay: Ba/F3 cell proliferation (MTS) assay; type: cell-based, murine; details: Mus musculus
Procedure: as §1, §2, §3, §4

[3] = test system: Ba/F3 EGFR WT; assay: Ba/F3 cell proliferation (MTS) assay; type: cell-based, murine; details: Mus musculus
Procedure: as §1
(§5) All experimental points were set up in six wells and all experiments were repeated at least three times. […] The curves were fitted using a non-linear regression model with a sigmoidal dose response.

[4] = test system: Ba/F3 EGFR L858R; assay: Ba/F3 cell proliferation (MTS) assay; type: cell-based, murine; details: Mus musculus
Procedure: as §1, §5

[5] = test system: Ba/F3 EGFR L718Q; assay: cells; details: Mus musculus, 72 h
Procedure: as §1, §2
The EGFR L718Q and L844V mutations were introduced via site directed mutagenesis using the Quick Change Site-Directed Mutagenesis kit (Stratagene; La Jolla, CA) according to the manufacturer's instructions. The L718Q mutation was generated using forward primer 5′-[sequence]-3′ (SEQ. ID. NO. 1) and reverse primer 5′ [sequence]-3′ (SEQ. ID. NO. 2). The L844V mutation was generated using forward primer 5′-[sequence]-3′ (SEQ. ID. NO. 3) and reverse primer 5′-[sequence]-3′ (SEQ. ID. NO. 4). All constructs were confirmed by DNA sequencing. The constructs were shuttled into the retroviral vector JP1540 or lentiviral vector JP1698 using the BD Creator™ System (BD Biosciences). […]
Growth and inhibition of growth was assessed by MTS assay and was performed according to previously established methods (Zhou, W., et al., Nature. 462, 2009, 1070-4; Ercan, D., et al., Cancer Discov. 934, 2012, 934-47). […]

[6] = test system: Ba/F3 EGFR DEL/T790M; assay: Ba/F3 cell proliferation (MTS) assay; type: cell-based, murine; details: Mus musculus
Procedure: as §1, §5

[7] = test system: Ba/F3 EGFR DEL; assay: Ba/F3 cell proliferation (MTS) assay; type: cell-based, murine; details: Mus musculus
Procedure: as §1, §5

[8] = test system: Ba/F3 EGFR DEL/844V; assay: Ba/F3 cell proliferation (MTS) assay; type: cell-based, murine; details: Mus musculus
Procedure: as §1, §2, §3, §4

[9] = test system: Ba/F3 EGFR L858R/T790M; assay: Ba/F3 cell proliferation (MTS) assay; type: cell-based, murine; details: Mus musculus
Procedure: as §1, §5

[10] = test system: Ba/F3 EGFR L858R/T790M/L718Q; assay: Ba/F3 cell proliferation (MTS) assay; type: cell-based, murine; details: Mus musculus
Procedure: as §1, §2, §3, §4

[11] = test system: Ba/F3 EGFR DEL/L718Q; assay: Ba/F3 cell proliferation (MTS) assay; type: cell-based, murine; details: Mus musculus
Procedure: as §1, §2, §3, §4

[12] = Ba/F3, EGFR DEL/T790M/L718Q, 72 hours, MTS, read-out: IC50
[13] = Ba/F3, EGFR L858R/L718Q, 72 hours, MTS, read-out: IC50
[14] = Ba/F3, EGFR WT, 72 hours, MTS, read-out: IC50
[15] = Ba/F3, EGFR L858R, 72 hours, MTS, read-out: IC50
[16] = Ba/F3, EGFR DEL/T790M, 72 hours, MTS, read-out: IC50
[17] = Ba/F3, EGFR DEL, 72 hours, MTS, read-out: IC50
[18] = Ba/F3, EGFR DEL/844V, 72 hours, MTS, read-out: IC50
[19] = Ba/F3, EGFR L858R/T790M, 72 hours, MTS, read-out: IC50
[20] = Ba/F3, EGFR L858R/T790M/L718Q, 72 hours, MTS, read-out: IC50
[21] = Ba/F3, EGFR DEL/L718Q, 72 hours, MTS, read-out: IC50

Compound | IC50 [1, 12] | IC50 [2, 13] | IC50 [3, 14] | IC50 [4, 15] | IC50 [5] | IC50 [6, 16] | IC50 [7, 17] | IC50 [8, 18] | IC50 [9, 19] | IC50 [10, 20] | IC50 [11, 21] | other results
C=CC(=O)Nc1cccc(Oc2nc(Nc3ccc(N4CCN(C)CC4)cc3OC)ncc2Cl)c1 [WZ4002] | 2010 nM | 2740 nM | 100 nM | 6.8 nM | 2890 nM | 19.2 nM | 8.4 nM | 956 nM | 14.2 nM | 2230 nM | 1490 nM | 
C=CC(=O)Nc1cc(Nc2nccc(-c3cn(C)c4ccccc34)n2)c(OC)cc1N(C)CCN(C)C [AZD9291] |  |  |  |  | 1250 nM |  |  |  |  |  |  | IC50 ([1]; Ba/F3 EGFR, 72 h): 576 nM; IC50 ([2]; Ba/F3 EGFR, 72 h): 1180 nM; IC50 ([3]; Ba/F3 EGFR, 72 h): 23 nM; IC50 ([4]; Ba/F3 EGFR-L858R, 72 h): 1.98 nM; IC50 ([6]; Ba/F3 EGFR, 72 h): 10 nM; IC50 ([7]; Ba/F3 EGFR, 72 h): 1.79 nM; IC50 ([8]; Ba/F3 EGFR, 72 h): 15.1 nM; IC50 ([9]; Ba/F3 EGFR, 72 h): 10 nM; IC50 ([10]; Ba/F3 EGFR, 72 h): 1270 nM; IC50 ([11]; Ba/F3 EGFR, 72 h): 55.4 nM
C=CC(=O)Nc1cc(Nc2nccc(-n3ccc4cccnc43)n2)c(OC)cc1N(C)CCN(C)C [Compound I-1, N-(5-((4-(1H-pyrrolo[2,3-b]pyridin-1-yl)pyrimidin-2-yl)amino)-2-((2-(dimethylamino)ethyl)(methyl)amino)-4-methoxyphenyl)acrylamide] | 644 nM | 2060 nM | 323 nM | 60 nM |  | 64.8 nM | 42.9 nM | 53.1 nM | 189 nM | 1970 nM | 176 nM | 
